Test results published in ChEMBL document CHEMBL6114968, “Discovery of BW710 as a potent, selective and orally bioavailable fibroblast growth factor receptor 2 (FGFR2) inhibitor” (Eur J Med Chem, 2025).

Key:
BaF3 [1] = test: Antiproliferative activity against mouse BaF3 cells expressing FGFR2 incubated for 72 hrs by CCK-8 assay; assay type: functional, cell-based; conditions: BaF3, 72 h
BaF3 [2] = test: Antiproliferative activity against mouse BaF3 cells expressing FGFR1 incubated for 72 hrs by CCK-8 assay; assay type: functional, cell-based; conditions: BaF3, 72 h
BaF3 [3] = test: Antiproliferative activity against mouse BaF3 cells incubated for 72 hrs by CCK-8 assay; conditions: BaF3, 72 h
[4] = target: Fibroblast growth factor receptor 1 (Homo sapiens) (UniProt P11362); test: Inhibition of FGFR1 (unknown origin) at 1 uM by KINOMEscan analysis relative to control
Sequence of Fibroblast growth factor receptor 1 (Homo sapiens) (P11362 22-822 limits assumed): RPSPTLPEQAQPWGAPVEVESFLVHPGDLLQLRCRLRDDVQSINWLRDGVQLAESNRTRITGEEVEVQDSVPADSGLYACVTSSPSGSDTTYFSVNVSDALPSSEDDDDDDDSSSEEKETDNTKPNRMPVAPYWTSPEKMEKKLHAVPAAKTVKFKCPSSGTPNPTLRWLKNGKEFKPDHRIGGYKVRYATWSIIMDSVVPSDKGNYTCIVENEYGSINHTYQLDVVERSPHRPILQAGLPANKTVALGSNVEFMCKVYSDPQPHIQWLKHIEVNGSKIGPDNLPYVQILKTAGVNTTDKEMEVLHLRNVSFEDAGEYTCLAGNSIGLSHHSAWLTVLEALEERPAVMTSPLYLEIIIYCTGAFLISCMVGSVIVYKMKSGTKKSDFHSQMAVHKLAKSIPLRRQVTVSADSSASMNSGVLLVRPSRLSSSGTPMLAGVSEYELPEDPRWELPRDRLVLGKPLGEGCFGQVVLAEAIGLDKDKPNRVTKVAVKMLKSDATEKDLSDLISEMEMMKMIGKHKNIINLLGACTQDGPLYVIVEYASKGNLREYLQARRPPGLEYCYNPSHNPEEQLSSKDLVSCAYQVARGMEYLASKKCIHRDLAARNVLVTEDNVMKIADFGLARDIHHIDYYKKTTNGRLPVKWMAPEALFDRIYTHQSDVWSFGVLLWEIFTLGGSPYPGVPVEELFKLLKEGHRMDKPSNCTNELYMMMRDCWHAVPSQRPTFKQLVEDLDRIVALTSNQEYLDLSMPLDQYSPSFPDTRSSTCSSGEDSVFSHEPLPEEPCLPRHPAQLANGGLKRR

[5] = target: Fibroblast growth factor receptor 2 (Homo sapiens) (UniProt P21802); test: Inhibition of FGFR2 (unknown origin) at 1 uM by KINOMEscan analysis relative to control
Sequence of Fibroblast growth factor receptor 2 (Homo sapiens) (P21802 22-821 limits assumed): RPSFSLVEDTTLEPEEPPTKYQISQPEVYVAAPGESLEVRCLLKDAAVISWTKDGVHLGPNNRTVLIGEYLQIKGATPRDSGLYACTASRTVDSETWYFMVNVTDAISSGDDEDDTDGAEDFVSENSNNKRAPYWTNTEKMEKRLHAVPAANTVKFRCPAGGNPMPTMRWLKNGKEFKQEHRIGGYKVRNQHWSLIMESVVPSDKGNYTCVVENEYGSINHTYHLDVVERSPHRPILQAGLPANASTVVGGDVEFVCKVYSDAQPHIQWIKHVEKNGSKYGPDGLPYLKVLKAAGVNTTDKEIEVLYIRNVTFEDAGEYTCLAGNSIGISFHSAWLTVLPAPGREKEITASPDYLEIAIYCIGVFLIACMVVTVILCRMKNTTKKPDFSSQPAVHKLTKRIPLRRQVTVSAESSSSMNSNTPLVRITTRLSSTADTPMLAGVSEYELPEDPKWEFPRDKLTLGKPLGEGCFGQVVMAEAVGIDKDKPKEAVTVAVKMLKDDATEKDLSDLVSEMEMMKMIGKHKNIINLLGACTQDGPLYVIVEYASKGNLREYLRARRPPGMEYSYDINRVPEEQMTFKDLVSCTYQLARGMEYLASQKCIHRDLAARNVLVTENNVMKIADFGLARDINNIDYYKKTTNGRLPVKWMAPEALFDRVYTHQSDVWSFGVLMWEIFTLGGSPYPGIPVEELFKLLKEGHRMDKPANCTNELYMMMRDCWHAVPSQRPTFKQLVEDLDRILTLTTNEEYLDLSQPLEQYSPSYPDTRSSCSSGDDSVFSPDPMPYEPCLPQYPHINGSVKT

[6] = target: Fibroblast growth factor receptor 3 (Homo sapiens) (UniProt P22607); test: Inhibition of FGFR3 (unknown origin) at 1 uM by KINOMEscan analysis relative to control
Sequence of Fibroblast growth factor receptor 3 (Homo sapiens) (P22607 23-806 limits assumed): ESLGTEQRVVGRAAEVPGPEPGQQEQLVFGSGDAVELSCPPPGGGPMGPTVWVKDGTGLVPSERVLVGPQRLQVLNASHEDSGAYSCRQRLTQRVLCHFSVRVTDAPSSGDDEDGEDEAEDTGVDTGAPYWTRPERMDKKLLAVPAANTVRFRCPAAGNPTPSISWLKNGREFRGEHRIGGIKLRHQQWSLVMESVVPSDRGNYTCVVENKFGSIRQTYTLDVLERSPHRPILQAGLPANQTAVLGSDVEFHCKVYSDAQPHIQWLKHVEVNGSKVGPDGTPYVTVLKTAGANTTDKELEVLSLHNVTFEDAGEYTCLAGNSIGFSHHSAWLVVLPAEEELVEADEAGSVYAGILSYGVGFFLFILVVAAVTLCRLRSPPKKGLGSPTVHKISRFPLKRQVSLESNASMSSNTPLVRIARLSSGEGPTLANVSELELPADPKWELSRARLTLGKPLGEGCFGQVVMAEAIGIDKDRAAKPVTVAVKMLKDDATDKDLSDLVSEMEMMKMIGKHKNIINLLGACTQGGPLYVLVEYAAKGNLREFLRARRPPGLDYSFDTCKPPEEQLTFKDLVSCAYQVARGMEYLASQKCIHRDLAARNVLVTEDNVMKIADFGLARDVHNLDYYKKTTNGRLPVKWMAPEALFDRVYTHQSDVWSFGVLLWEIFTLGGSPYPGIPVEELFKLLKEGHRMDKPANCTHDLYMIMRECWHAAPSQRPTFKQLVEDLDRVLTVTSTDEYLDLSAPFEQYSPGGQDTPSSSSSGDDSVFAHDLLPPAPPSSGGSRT

[7] = target: Fibroblast growth factor receptor 4 (Homo sapiens) (UniProt P22455); test: Inhibition of FGFR4 (unknown origin) at 1 uM by KINOMEscan analysis relative to control
Sequence of Fibroblast growth factor receptor 4 (Homo sapiens) (P22455 22-802 limits assumed): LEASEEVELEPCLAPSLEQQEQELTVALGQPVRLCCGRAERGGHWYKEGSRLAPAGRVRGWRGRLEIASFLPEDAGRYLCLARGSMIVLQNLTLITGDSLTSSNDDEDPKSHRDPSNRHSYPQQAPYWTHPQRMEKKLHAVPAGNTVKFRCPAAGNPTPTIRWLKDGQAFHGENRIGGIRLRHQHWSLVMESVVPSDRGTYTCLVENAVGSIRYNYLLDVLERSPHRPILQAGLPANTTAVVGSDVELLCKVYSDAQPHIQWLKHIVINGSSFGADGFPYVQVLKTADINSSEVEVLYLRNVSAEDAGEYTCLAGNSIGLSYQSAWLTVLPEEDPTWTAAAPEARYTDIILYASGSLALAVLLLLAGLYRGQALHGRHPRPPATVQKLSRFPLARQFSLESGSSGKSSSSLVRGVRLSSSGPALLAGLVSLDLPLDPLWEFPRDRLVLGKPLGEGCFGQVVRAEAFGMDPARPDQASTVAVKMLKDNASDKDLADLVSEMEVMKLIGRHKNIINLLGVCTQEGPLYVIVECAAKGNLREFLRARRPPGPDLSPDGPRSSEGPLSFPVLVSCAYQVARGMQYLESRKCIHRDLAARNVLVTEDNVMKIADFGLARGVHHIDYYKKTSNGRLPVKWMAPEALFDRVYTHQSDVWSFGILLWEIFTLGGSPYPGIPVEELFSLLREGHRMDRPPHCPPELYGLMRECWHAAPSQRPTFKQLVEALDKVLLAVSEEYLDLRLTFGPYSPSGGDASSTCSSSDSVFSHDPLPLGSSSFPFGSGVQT

[8] = target: Fibroblast growth factor receptor 2 (Homo sapiens) (UniProt P21802); test: Inhibition of FGFR2 phosphorylation in human SNU-16 cells incubated for 1 hr by Western blot analysis; assay type: cell-based; conditions: dose 0.5-100 nM
[9] = target: Fibroblast growth factor receptor 2 (Homo sapiens) (UniProt P21802); test: Inhibition of FGFR2 in human SNU-16 cells assessed as decrease in FRS2-alpha phosphorylation at Tyr436 residue incubated for 1 hr by Western blot analysis; assay type: cell-based; conditions: dose 0.5-100 nM
[10] = target: Fibroblast growth factor receptor 2 (Homo sapiens) (UniProt P21802); test: Inhibition of FGFR2 in human SNU-16 cells assessed as decrease in Akt phosphorylation at Ser473 residue incubated for 1 hr by Western blot analysis; assay type: cell-based; conditions: dose 0.5-100 nM
[11] = target: Fibroblast growth factor receptor 2 (Homo sapiens) (UniProt P21802); test: Inhibition of FGFR2 in human SNU-16 cells assessed as decrease in ERK1/2 phosphorylation incubated for 1 hr by Western blot analysis; assay type: cell-based; conditions: dose 0.5-100 nM
[12] = Antiproliferative activity against FGFR2 amplified human SNU-16 cells measured after 72 hrs by CCK-8 assay; assay type: functional, cell-based; conditions: SNU-16, 72 h
[13] = Antiproliferative activity against FGFR2 amplified human KATO III stomach cancer cell line measured after 72 hrs by CCK-8 assay; assay type: functional, cell-based
A204 = test: Antiproliferative activity against FGFR1 amplified human A204 cells measured after 72 hrs by CCK-8 assay; assay type: functional, cell-based; conditions: A204, 72 h
[14] = Antiproliferative activity against human RT-112 cells harboring FGFR3-TACC3 measured after 72 hrs by CCK-8 assay; assay type: functional, cell-based; conditions: RT-112, 72 h
MDA-MB-453 = test: Antiproliferative activity against human MDA-MB-453 cells harboring FGFR4-Y367C measured after 72 hrs by CCK-8 assay; assay type: functional, cell-based; conditions: MDA-MB-453, 72 h
[15] = Half life in mouse at 1 mg/kg, iv; assay type: ADME, organism-based; conditions: in vivo
[16] = Cmax in mouse at 1 mg/kg, iv; assay type: ADME, organism-based; conditions: in vivo
[17] = Clearance in mouse at 1 mg/kg, iv; assay type: ADME, organism-based; conditions: in vivo
[18] = AUC(0 to t) in mouse at 1 mg/kg, iv; assay type: ADME, organism-based; conditions: in vivo
[19] = MRT(0 to t) in mouse at 1 mg/kg, iv; assay type: ADME, organism-based; conditions: in vivo
[20] = Half life in mouse at 10 mg/kg, po; assay type: ADME, organism-based; conditions: in vivo
[21] = Cmax in mouse at 10 mg/kg, po; assay type: ADME, organism-based; conditions: in vivo
[22] = AUC(0 to t) in mouse at 10 mg/kg, po; assay type: ADME, organism-based; conditions: in vivo
[23] = MRT(0 to t) in mouse at 10 mg/kg, po; assay type: ADME, organism-based; conditions: in vivo
[24] = Oral bioavailability in mouse at 10 mg/kg; assay type: ADME, organism-based; conditions: in vivo

For `C=C(C)C(=O)Nc1ccc(-c2c(-c3ccc(S4(=O)=NCCCCC4)cc3)c3c(N)ncnc3n2C)cc1` (stereo not given), the IC50 (BaF3 [1]) was 14.6 nM, the IC50 (BaF3 [2]) was > 1000 nM and the IC50 (BaF3 [3]) was > 1000 nM.

With `C=CC(=O)Nc1ccc(-c2c(-c3ccc(S(=N)(=O)CC(C)(C)C)cc3)c3c(N)ncnc3n2C)cc1` (stereo not given) the IC50 (BaF3 [1]) was 2.9 nM, the IC50 (BaF3 [2]) was 684 nM and the IC50 (BaF3 [3]) was > 1000 nM.

In the case of `C=CC(=O)Nc1ccc(-c2c(-c3ccc(S4(=O)=NCCC4)cc3)c3c(N)ncnc3n2C)cc1` (stereo not given), the IC50 (BaF3 [1]) is reported as 12 nM, the IC50 (BaF3 [2]) is reported as > 1000 nM and the IC50 (BaF3 [3]) is reported as > 1000 nM.

With `C=CC(=O)Nc1ccc(-c2c(-c3ccc(S(=N)(=O)C4CCCC4)cc3)c3c(N)ncnc3n2C)cc1` (stereo not given) the IC50 (BaF3 [1]) was 6.6 nM, the IC50 (BaF3 [2]) was 885 nM and the IC50 (BaF3 [3]) was > 1000 nM.

With `C=CC(=O)Nc1ccc(-c2c(-c3ccc(S(=N)(=O)CCC)cc3)c3c(N)ncnc3n2C)cc1` (stereo not given) the IC50 (BaF3 [1]) was 70.1 nM, the IC50 (BaF3 [2]) was > 1000 nM and the IC50 (BaF3 [3]) was > 1000 nM.

For `C=CC(=O)Nc1ccc(-c2c(-c3ccc(S(C)(=O)=Nc4ccccc4)cc3)c3c(N)ncnc3n2C)cc1` (stereo not given), the IC50 (BaF3 [1]) was 101 nM, the IC50 (BaF3 [2]) was 429 nM and the IC50 (BaF3 [3]) was > 1000 nM.

For `C=CC(=O)Nc1ccc(-c2c(-c3ccc(S(C)(=O)=NCC)cc3)c3c(N)ncnc3n2C)cc1` (stereo not given), the IC50 (BaF3 [1]) was 153 nM, the IC50 (BaF3 [2]) was > 1000 nM and the IC50 (BaF3 [3]) was > 1000 nM.

Compound `C=C(C)C(=O)Nc1ccc(-c2c(-c3ccc(Oc4nccc(C)n4)c(F)c3)c3c(N)ncnc3n2C)cc1` [LIRAFUGRATINIB] has an IC50 (BaF3 [1]) of 2.4 nM and an IC50 (BaF3 [2]) of 493 nM.

For `C=CC(=O)Nc1ccc(-c2c(-c3ccc(S(=N)(=O)C4CC4)cc3)c3c(N)ncnc3n2C)cc1` (stereo not given), the IC50 (BaF3 [1]) was 61.9 nM, the IC50 (BaF3 [2]) was > 1000 nM and the IC50 (BaF3 [3]) was > 1000 nM.

For `C=CC(=O)Nc1ccc(-c2c(-c3ccc(S(=N)(=O)C4CCC4)cc3)c3c(N)ncnc3n2C)cc1` (stereo not given), the IC50 (BaF3 [1]) was 45.8 nM, the IC50 (BaF3 [2]) was > 1000 nM and the IC50 (BaF3 [3]) was > 1000 nM.

In the case of `C=CC(=O)Nc1ccc(-c2c(-c3ccc(S(C)(=O)=NC)cc3)c3c(N)ncnc3n2C)cc1` (stereo not given), the IC50 (BaF3 [1]) is reported as 335 nM, the IC50 (BaF3 [2]) is reported as > 1000 nM and the IC50 (BaF3 [3]) is reported as > 1000 nM.

In the case of `C=C(C)C(=O)Nc1ccc(-c2c(-c3ccc(S4(=O)=NCCCCC4)c(F)c3)c3c(N)ncnc3n2C)cc1` (stereo not given), the IC50 (BaF3 [1]) is reported as 105 nM, the IC50 (BaF3 [2]) is reported as > 1000 nM and the IC50 (BaF3 [3]) is reported as > 1000 nM.

With `C=C(C)C(=O)Nc1ccc(-c2c(-c3ccc(S4(=O)=NCCCCC4)cc3)c3c(N)ncnc3n2C)c(F)c1` (stereo not given) the IC50 (BaF3 [1]) was 2.8 nM, the IC50 (BaF3 [2]) was > 1000 nM and the IC50 (BaF3 [3]) was > 1000 nM. It also gave an inhibition [4] of 14.7%, an inhibition [5] of 101% and an inhibition [6] of 13.7%. For the same compound, the inhibition [7] was 5.85%, the inhibition [8] was “Dose-dependent-effect” and the inhibition [9] was “Dose-dependent-effect”. For the same compound, the inhibition [10] was “Dose-dependent-effect”, the inhibition [11] was “Dose-dependent-effect” and the IC50 [12] was 6.7 nM. It also gave an IC50 [13] of 12.6 nM, an IC50 (A204) of 2380 nM and an IC50 [14] of 782 nM. For the same compound, the IC50 (MDA-MB-453) was 2850 nM, the half-life [15] was 52.2 min and the Cmax [16] was 4700 ng/mL. For the same compound, the clearance [17] was 13.2 mL/min/kg, the AUC(0-t) [18] was 1270 ng·h/mL and the MRT last [19] was 28.8 min. For the same compound, the half-life [20] was 64.8 min, the Cmax [21] was 2910 ng/mL and the AUC(0-t) [22] was 3650 ng·h/mL. The MRT last [23] was 87.6 min and the bioavailability [24] was 29%.

With `CCN1C(=O)N(c2c(F)c(OC)cc(OC)c2F)Cc2cnc3[nH]c(CN4CCOCC4)cc3c21` [PEMIGATINIB] the IC50 (BaF3 [1]) was 2 nM, the IC50 (BaF3 [2]) was 19.8 nM and the IC50 (BaF3 [3]) was > 1000 nM. For the same compound, the IC50 [12] was 1.1 nM, the IC50 [13] was 1.8 nM and the IC50 (A204) was 29.2 nM. It also gave an IC50 [14] of 10.9 nM and an IC50 (MDA-MB-453) of 150 nM.

With `C=CC(=O)Nc1ccc(-c2c(-c3ccc(S(=N)(=O)CC(C)C)cc3)c3c(N)ncnc3n2C)cc1` (stereo not given) the IC50 (BaF3 [1]) was 12.3 nM, the IC50 (BaF3 [2]) was > 1000 nM and the IC50 (BaF3 [3]) was > 1000 nM.

With `C=CC(=O)Nc1ccc(-c2c(-c3ccc(S4(=O)=NCCCCC45CC5)cc3)c3c(N)ncnc3n2C)cc1` (stereo not given) the IC50 (BaF3 [1]) was 3.6 nM, the IC50 (BaF3 [2]) was 385 nM and the IC50 (BaF3 [3]) was > 1000 nM.
